Experimental data reported in patent US20230002334A1, “TRPM8 MODULATORS” (Givaudan SA, priority 2019, published 2023).
Counter-ions that a name gives are not always drawn.

biological target: T1, hTRPM8 (Homo sapiens, UniProt Q7Z2W7); test: Assay on TRPM8 modulators: calcium imaging (Fluo-4, Flexstation) in HEK293 cell line stably expressing hTRPM8; format: cell-based; conditions: HEK293 cells stably expressing hTRPM8, calcium influx, sigmoidal dose-response fit; read-out: EC50
T1 construct: expressed in transfected cells
T1 sequence (Q7Z2W7 whole entry): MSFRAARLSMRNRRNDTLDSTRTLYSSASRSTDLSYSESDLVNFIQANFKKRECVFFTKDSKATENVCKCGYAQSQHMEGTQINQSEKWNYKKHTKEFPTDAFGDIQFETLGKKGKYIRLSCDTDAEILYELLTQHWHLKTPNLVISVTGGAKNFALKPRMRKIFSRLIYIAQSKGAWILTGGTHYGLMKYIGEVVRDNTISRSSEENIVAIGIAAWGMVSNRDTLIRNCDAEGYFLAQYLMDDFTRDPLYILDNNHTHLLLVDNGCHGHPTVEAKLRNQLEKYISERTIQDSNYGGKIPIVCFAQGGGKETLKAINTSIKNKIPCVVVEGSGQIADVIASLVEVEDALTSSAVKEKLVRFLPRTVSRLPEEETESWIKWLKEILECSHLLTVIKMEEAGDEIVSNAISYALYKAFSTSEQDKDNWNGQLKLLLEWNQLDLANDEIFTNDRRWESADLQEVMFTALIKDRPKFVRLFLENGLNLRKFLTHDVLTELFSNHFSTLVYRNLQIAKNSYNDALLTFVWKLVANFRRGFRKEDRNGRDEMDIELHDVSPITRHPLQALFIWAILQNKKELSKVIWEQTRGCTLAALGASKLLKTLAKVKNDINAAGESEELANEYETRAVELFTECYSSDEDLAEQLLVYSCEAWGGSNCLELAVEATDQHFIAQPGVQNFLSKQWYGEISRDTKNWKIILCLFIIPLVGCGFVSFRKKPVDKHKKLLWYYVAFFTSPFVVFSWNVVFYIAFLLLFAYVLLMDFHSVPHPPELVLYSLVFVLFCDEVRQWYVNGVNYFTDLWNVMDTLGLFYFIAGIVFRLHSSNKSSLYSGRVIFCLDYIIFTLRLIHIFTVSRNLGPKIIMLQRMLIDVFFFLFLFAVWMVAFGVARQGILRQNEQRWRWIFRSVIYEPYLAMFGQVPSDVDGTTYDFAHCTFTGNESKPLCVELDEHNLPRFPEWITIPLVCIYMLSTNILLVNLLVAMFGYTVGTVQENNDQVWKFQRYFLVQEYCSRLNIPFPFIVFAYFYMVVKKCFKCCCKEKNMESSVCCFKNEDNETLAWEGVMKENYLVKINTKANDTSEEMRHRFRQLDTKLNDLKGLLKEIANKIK
Procedure: A HEK293 cell line stably expressing hTRPM8 was generated according to Klein et al., (Chem. Senses 36: 649-658, 2011) and receptor activation was monitored by calcium imaging in a Flexstation. For Ca-imaging assays of TRPM8 channel activation, cells were seeded on day 0 at a density of 12000 cells per well in Dulbecco's modified Eagle medium (DMEM) containing 9% foetal bovine serum in black, clear bottom 96-well plates that had been coated with 0.001% polyethyleneimine (molecular weight=60 000, Acros Organics). On day 2, agonists were evaluated via calcium imaging using Fluo-4. Briefly, growth medium was discarded, and the cells were incubated in the dark for 1 h at 37° C. in 50 μL loading buffer consisting of 2.7 μM Fluo-4 AM (Invitrogen) and […] probenecid (Sigma-Aldrich) in DMEM (without serum). After incubation, the plates were washed five times with 100 μL of assay buffer (in mM: 130 NaCl, 5 KCl, 10 HEPES, 2 CaCl2, and 10 glucose, pH7.4.) and further incubated in the dark at room temperature for 30 min. The cells were then washed five times with 100 μL assay buffer and then calcium influx to serial dilutions of inventive compounds were measured in a Flexstation 3 (Molecular Devices). Receptor activation was initiated following addition of 20 μl of a 10-fold concentrated ligand stock solution, which is also prepared in assay buffer. Fluorescence was continuously monitored for 15 seconds prior to ligand addition and for 105 seconds after ligand addition, for a total of 120 seconds. Maximal receptor activation in relation to solvent control and relative to 31.6 μM menthol is determined. Data from serial dilutions were processed with a KNIME workflow to fit a sigmoidal dose-response curve and to extrapolate EC50 values.

First: CN1OC(C)(C)[C@@H]2CCC(c3ccccc3)C[C@H]21 (mixture of isomers) [Compound 115, rac-(3aR,7aR)-1,3,3-trimethyl-6-phenyloctahydrobenzo[c]isoxazole]
Second: CC(C)N1OC(C)(C)[C@@H]2C[C@](C)(c3ccccc3)C[C@H](C)[C@H]21 (racemic) [Compound 60, rac-(3aR,5R,7S,7aR)-1-isopropyl-3,3,5,7-tetramethyl-5-phenyloctahydrobenzo[c]isoxazole]
The EC50 of the first is higher: 1000 to 35000 nM for the first, 50 to 300 nM for the second. The second is the more potent here.

First: Cc1ccc(C#N)cc1[C@@]1(C)C[C@@H]2[C@@H]([C@@H](C)C1)N(C)OC2(C)C (stereo in doubt) [Compound 138, rel-4-methyl-3-((3aR,5R,7S,7aR)-1,3,3,5,7-pentamethyloctahydrobenzo[c]isoxazol-5-yl)benzonitrile]
Second: Cc1cc(C#N)ccc1[C@@]1(C)C[C@@H]2[C@@H]([C@@H](C)C1)N(C)OC2(C)C (racemic) [Compound 130, rac-3-methyl-4-((3aR,5R,7S,7aR)-1,3,3,5,7-pentamethyloctahydrobenzo[c]isoxazol-5-yl)benzonitrile]
The EC50 of the first is lower: < 50 nM for the first, 50 to 300 nM for the second. The first is the more potent here.

`CCN1OC(C)(C)[C@@H]2C[C@](C)(c3ccccc3C)C[C@@H](C)[C@H]21` (racemic) [Compound 33, rac-(3aR,5R,7R,7aR)-1-ethyl-3,3,5,7-tetramethyl-5-(o-tolyl)octahydrobenzo[c]isoxazole] and `CCOc1ccccc1[C@@]1(C)C[C@@H]2[C@@H]([C@@H](C)C1)N(C)OC2(C)C` (racemic) [Compound 77, rac-(3aR,5R,7S,7aR)-5-(2-ethoxyphenyl)-1,3,3,5,7-pentamethyloctahydrobenzo[c]isoxazole] fall in the same range of EC50: 300 to 1000 nM for the first, 300 to 1000 nM for the second.

First: CC(C)N1OC(C)(C)[C@@H]2C[C@](C)(c3ccc(F)cc3)C[C@H](C)[C@H]21 (racemic) [Compound 103, rac-(3aR,5R,7S,7aR)-5-(4-fluorophenyl)-1-isopropyl-3,3,5,7-tetramethyloctahydrobenzo[c]isoxazole]
Second: C[C@H]1C[C@@](C)(c2ccc(F)cc2)C[C@H]2[C@H]1N(C)OC2(C)C (racemic) [Compound 119, rac-(3aS,5R,7S,7aS)-5-(4-fluorophenyl)-1,3,3,5,7-pentamethyloctahydrobenzo[c]isoxazole]
The EC50 of the first is lower: < 50 nM for the first, 300 to 1000 nM for the second. The first is the more potent here.

First: Cc1ccccc1[C@H]1C[C@@H]2[C@@H]([C@@H](C)C1)N(C(C)C)OC2(C)C (racemic) [Compound 63, rac-(3aR,5R,7S,7aR)-1-isopropyl-3,3,7-trimethyl-5-(o-tolyl)octahydrobenzo[c]isoxazole]
Second: Cc1c(Cl)cccc1[C@H]1C[C@@H]2[C@@H]([C@@H](C)C1)N(C(C)C)OC2(C)C (racemic) [Compound 90, rac-(3aR,5R,7S,7aR)-5-(3-chloro-2-methylphenyl)-1-isopropyl-3,3,7-trimethyloctahydrobenzo[c]isoxazole]
The EC50 of the first is higher: 300 to 1000 nM for the first, 50 to 300 nM for the second.

`Cc1ccc(F)cc1[C@@]1(C)C[C@@H]2[C@@H]([C@@H](C)C1)N(C)OC2(C)C` (racemic) [Compound 107, rac-(3aR,5R,7S,7aR)-5-(5-fluoro-2-methylphenyl)-1,3,3,5,7-pentamethyloctahydrobenzo[c]isoxazole] and `Cc1ccc(Cl)cc1[C@@]1(C)C[C@@H]2[C@@H]([C@@H](C)C1)N(C)OC2(C)C` (racemic) [Compound 105, rac-(3aR,5R,7S,7aR)-5-(5-chloro-2-methylphenyl)-1,3,3,5,7-pentamethyloctahydrobenzo[c]isoxazole] cannot be ordered by EC50: < 50 nM for the first, < 50 nM for the second.

`CC(C)=CC[C@]1(C)CC[C@@H]2[C@@H](C1)C(C)(C)ON2C` (racemic) [Compound 113, rac-(3aR,5S,7aR)-1,3,3,5-tetramethyl-5-(3-methylbut-2-en-1-yl)octahydrobenzo[c]isoxazole] and `CCC[C@@]1(C)C[C@@H]2[C@@H]([C@@H](C)C1)N(C)OC2(C)C` (racemic) [Compound 49, rac-(3aR,5R,7S,7aR)-1,3,3,5,7-pentamethyl-5-propyloctahydrobenzo[c]isoxazole] fall in the same range of EC50: 300 to 1000 nM for the first, 300 to 1000 nM for the second.

`C[C@H]1C[C@@](C)(c2cccc3ccccc23)C[C@@H]2[C@@H]1N(C)OC2(C)C` (racemic) [Compound 44, rac-(3aR,5R,7S,7aR)-1,3,3,5,7-pentamethyl-5-(naphthalen-1-yl)octahydrobenzo[c]isoxazole] and `Cc1cccc(C)c1[C@@]1(C)C[C@@H]2[C@@H]([C@@H](C)C1)N(C)OC2(C)C` (racemic) [Compound 76, rac-(3aR,5R,7S,7aR)-5-(2,6-dimethylphenyl)-1,3,3,5,7-pentamethyloctahydrobenzo[c]isoxazole] fall in the same range of EC50: 300 to 1000 nM for the first, 300 to 1000 nM for the second.

`CC(C)CCC1CC(C)C2C(C1)C(C)(C)OCN2C` (stereo not drawn) [Compound 22, 6-isopentyl-1,4,4,8-tetramethyloctahydro-2H-benzo[d][1,3]oxazine] and `CC1CC(C)C2C(C1)C(C)(C)ON2C` (stereo not drawn) [Compound 5, 1,3,3,5,7-pentamethyloctahydrobenzo[c]isoxazole hydrochloride] fall in the same range of EC50: 1000 to 35000 nM for the first, 1000 to 35000 nM for the second.

`C[C@H]1C[C@@](C)(c2ccoc2)C[C@@H]2[C@@H]1N(C)OC2(C)C` (racemic) [Compound 110, rac-(3aR,5R,7S,7aR)-5-(furan-3-yl)-1,3,3,5,7-pentamethyloctahydrobenzo[c]isoxazole] and `Cc1ccc([C@@]2(C)C[C@@H]3[C@@H]([C@@H](C)C2)N(C)OC3(C)C)s1` (racemic) [Compound 41, rac-(3aR,5R,7S,7aR)-1,3,3,5,7-pentamethyl-5-(5-methylthiophen-2-yl)octahydrobenzo[c]isoxazole] fall in the same range of EC50: 300 to 1000 nM for the first, 300 to 1000 nM for the second.

First: Cc1ccc(F)cc1[C@H]1C[C@@H]2[C@@H]([C@@H](C)C1)N(C)OC2(C)C (racemic) [Compound 108, rac-(3aR,5R,7S,7aR)-5-(5-fluoro-2-methylphenyl)-1,3,3,7-tetramethyloctahydrobenzo[c]isoxazole]
Second: C[C@H]1C[C@@](C)(c2ccc(F)cc2F)C[C@@H]2[C@@H]1N(C)OC2(C)C (racemic) [Compound 70, rac-(3aR,5R,7S,7aR)-5-(2,4-difluorophenyl)-1,3,3,5,7-pentamethyloctahydrobenzo[c]isoxazole]
The EC50 of the first is higher: 300 to 1000 nM for the first, 50 to 300 nM for the second.

First: COc1ccc(C#N)cc1[C@]1(C)C[C@@H](C)[C@@H]2[C@@H](C1)C(C)(C)ON2C (racemic) [Compound 132, rac-4-methoxy-3-((3aR,5R,7R,7aR)-1,3,3,5,7-pentamethyloctahydrobenzo[c]isoxazol-5-yl)benzonitrile]
Second: COc1ccc(OC)c(C2(C)CC(C)C3C(C2)C(C)(C)ON3C)c1 (stereo not drawn) [Compound 17, 5-(2,5-dimethoxyphenyl)-1,3,3,5,7-pentamethyloctahydrobenzo[c]isoxazole]
The EC50 of the first is higher: 300 to 1000 nM for the first, 50 to 300 nM for the second.

`CCCCC[C@@H]1CC[C@@H]2[C@@H](C1)C(C)(C)ON2C` (racemic) [Compound 23, rac-(3aR,5R,7aR)-1,3,3-trimethyl-5-pentyloctahydrobenzo[c]isoxazole] and `CCCC[C@@H]1CC[C@@H]2[C@@H](C1)C(C)(C)ON2C` (racemic) [Compound 27, rac-(3aR,5R,7aR)-5-butyl-1,3,3-trimethyloctahydrobenzo[c]isoxazole] fall in the same range of EC50: 300 to 1000 nM for the first, 300 to 1000 nM for the second.

For `COc1cc(F)ccc1[C@@]1(C)C[C@@H]2[C@@H]([C@@H](C)C1)N(C)OC2(C)C` (racemic) [Compound 99, rac-(3aR,5R,7S,7aR)-5-(4-fluoro-2-methoxyphenyl)-1,3,3,5,7-pentamethyloctahydrobenzo[c]isoxazole], the EC50 was < 50 nM.
